From patent US6395467B1 (priority 1998, dated 2002)

Key:
[1] = Glass-forming tendency: concentration needed to vitrify (Cv), Q and qv*; format: physicochemical; details: for Moles of water/mole of CPA (10/Q): pure CPA at Cv; for qv* (Moles of water/mole of polar groups at Cv): pure CPA, Table 1
From the text: The qv* method for identifying useful cryoprotectant solutions based on this concentration scale is: to select at least one cryoprotectant whose qv* is below 2.0, include it in a mixture with other cryoprotectants, determine the Cv of the resulting mixture in the normal way (see, for example, Fahy et al, Cryobiology 21: 407-426, 1984), calculate q* at Cv (qv*) (note: the number of moles of water can be readily determined from the weight of a given volume of solution minus the number of grams of all solutes, i.e., from the number of grams of water per unit volume or per unit weight), compare the resulting qv* value to the qv* values of alternative cryoprotectant solutions, and selecting lower qv* value solutions in general preference to higher qv* solutions. qv* values can be estimated adequately from published Q values by estimating that the densities of all solution components as pure substances are unchanged by being in solution with other substances (the validity of a similar approach in deriving Q from % w/v concentrations is discussed in Fahy, in: Low Temperature Biotechnology: Emerging Applications and Engineering Contributions, J.J. McGrath and K. R. Diller, eds, ASME, 1988, pp. 113146.)
“Cv” is the concentration needed to vitrify 5-10 ml of solution at a cooling rate of about 10° C./min.
“qv*=[(#moles of water)/(mole]/[(# polar groups)/(mole cryoprotectant)] or
qv*=(#moles of water per unit volume or per unit mass of solution)/(# moles of polar groups on penetrating cryoprotectants per unit volume or unit mass of solution) at Cv”.

[2] = cited from earlier work; for Q (moles of CPA per 10 moles of water): pure CPA at Cv
rabbit kidney slices = assay: Freezing of rabbit kidney slices to −130° C., K/Na ratio after freezing and thawing; format: cell-based; details: 30% w/v cryoprotectant, frozen to −130° C.
Procedure: A recent freezing experiment compared freezing of rabbit kidney slices to −130° C. in the presence of either 30% w/v DMSO or 30% w/v Veg solutes. The K/Na ratio after freezing and thawing in DMSO was 2.46+/−0.30, whereas the K/Na ratio after freezing and thawing in 30% w/v Veg solutes was 3.10+/−0.07 (p<0.05).

rat hepatocytes = assay: Rat hepatocytes in suspension, trypan blue dye exclusion after cryoprotectant exposure or freezing to −140° C.; format: cell-based; details: 10% v/v
Procedure: A recent freezing experiment compared freezing of rat hepatocytes in suspension to −140° C. in the presence of either 10% v/v DMSO or 10% v/v Veg solutes. Relative to the initial viability, 98% of the Veg-treated, non-frozen hepatocytes were able to exclude trypan blue dye, whereas only 70% of the DMSO-treated, non-frozen hepatocytes retained their dye exclusion capability after addition and removal of DMSO alone. After freezing and thawing, 65% of the initial number of freshly isolated hepatocytes remained capable of excluding trypan blue dye, whereas only 60% of frozen-thawed hepatocytes retained this ability when frozen with DMSO.

[3] = tested on: rabbit renal cortical slices; assay: Toxicity of cryoprotectant solutions to rabbit renal cortical slices (K/Na ratio after exposure, washout and 90 min at 25° C.); format: cell-based
From the text: FIGS. 1 and 2 display a reanalysis (performed in early July of 1998) of public information (Fahy, Levy, and Ali, Cryobiology 24: 196213, 1987) on the toxicity of several vitrification solutions of known composition. These vitrification solutions will vitrify at 1,000 atmospheres and contain either 6% polyvinyl pyrrolidone of relative molecular mass 40 kDa [PVP K30] or 6% polyethylene glycol [PEG 8000]. The data set is advantageous because all solutions analyzed are vitrifiable, the data set has low standard errors, and toxicity was convincingly dissociated from osmotic factors (see Fahy, Levy, and Ali, 1987, for discussion). In this example, viability was defined by the ratio of primarily intracellular potassium to intracellular sodium (K/Na ratio) after cryoprotectant washout and active metabolism for 90 min at the optimum temperature of 25° C. The test system was rabbit renal cortical slices.
[…] Each step is 20 min except for 1X step, which is 40 min. All steps done at 0° C.

Human sperm = Human sperm freezing and thawing, motility; format: cell-based; details: 2 M, cryoprotectant not removed
Procedure: Human sperm was exposed to 2 M Veg solutes or 2 M glycerol near 0° C. using gradual addition methods, then frozen, thawed, and videotaped without removing the cryoprotectant.

SMILES | Moles of water/mole of CPA (10/Q) [1] | qv* (Moles of water/mole of polar groups at Cv) [1] | Q (moles of CPA per 10 moles of water) [2] | other results
CC(O)CO (centres unmarked) [1,2-propanediol] |  |  |  | qv* ([1]; pure agent, b117): about 2.6
O=C(CO)CO [1,3-dihydroxyacetone] | 5 | 1.7 |  | 
OCCCO [1,3-propanediol] | 3.2 | 1.6 | 3.1 moles of CPA per 10 moles of water | 
CC(N)=O [Acetamide] | 2.4 | 1.2 | 4.1 moles of CPA per 10 moles of water | 
CC(=O)CO [Acetol, hydroxyacetone] | 2.8 | 1.4 | 3.6 moles of CPA per 10 moles of water | 
C[S+](C)[O-] [DMSO, dimethyl sulfoxide] |  |  |  | K/Na ratio after freezing and thawing (rabbit kidney slices): 2.46+/−0.30; hepatocytes capable of excluding trypan blue dye, of the initial number of freshly isolated hepatocytes (rat hepatocytes; after freezing to −140° C. and thawing): 60%; hepatocytes able to exclude trypan blue dye, relative to the initial viability (rat hepatocytes; non-frozen, after addition and removal): 70%
OCCO [Ethylene glycol] | 3.0 | 1.4 | 3.3 moles of CPA per 10 moles of water | recovery (viability, FIG. 3) ([3]; at Cv, EuroCollins vehicle): less than 50%; concentrations not overtly harmful ([3]; in D(1)F-EG mixtures): ≤ 30 % w/v
CNC=O [N-Methyl-Formamide] | 2.6 | 1.3 | 3.9 moles of CPA per 10 moles of water | 
NC=O [formamide] |  |  |  | maximum concentration associated with minimal injury ([3]; in D(1)F-EG mixtures, 57-58% w/v total): about 14%; vitrification of aqueous solutions ([2]; agent alone): do not vitrify
OCC(O)CO [glycerol] |  |  |  | sperm motility after freezing and thawing (Human sperm): largely quiescent upon thawing
